Test results from patent publication US20100189596A1, “COMPOSITE EMULSIFIER, AN EMULSION PREPARED FROM IT AND THE PREPARATION METHOD THEREOF” (SHENYANG PHARMACEUTICAL UNIVERSITY, priority 2007, published 2010).
Marks after values point to notes of the source that are not given here.

Tested on: adriamycin-induced myocardial injury model in rat
Assay: Protective effects on adriamycin-induced myocardial injury model in rat
Format: in vivo, Wistar rats
Text: Coenzyme Q10 can reduce the cardiotoxicity induced by adriamycin. In this experiment, to adriamycin-induced myocardial injury model in rat was constructed for detecting the effects of coenzyme Q10 nanoemulsion of protecting rats from adriamycin-induced myocardial injury.
40 Wistar rats (250±15 g, F/M=1:1) were randomly divided into five groups (8 animals each group): negative control group, ADM group, ADM+coenzyme Q10 (low dosage) group, ADM+coenzyme Q10 (medium dosage) group and ADM+coenzyme Q10 (high dosage) group. The control group received intraperitoneal injection of physiological saline at 10 mL/kg/d for 9 days. The ADM group received intraperitoneal injection of ADM at 3 mg/kg every other day for 5 times in total (9 days). The ADM+coenzyme Q10 (low, medium and high dosages) groups respectively received tail vein injection of coenzyme Q10 at 1.5, 3.0 and 6.0 mg/kg/d for 9 days, and ADM was administered at 3 mg/kg every other day for 5 times in total (9 days) (10 min after coenzyme Q10 injection, intraperitoneal injection of ADM 3 mg/kg was performed). The rats were sacrificed on the 10th day for histopathological examination and detection for the contents of malonaldehyde and SOD. The histopathological examination was performed by the steps of taking myocardial tissue from the left ventricular, fixing with 10% formaldehyde, slicing according to the conventional methods, and staining with HE.

[1] = ADM group, 3 mg/kg i.p. x5, n = 8
[2] = ADM group: ADM 3 mg/kg i.p. every other day, 5 times, n = 8

COc1cccc2c1C(=O)c1c(O)c3c(c(O)c1C2=O)C[C@@](O)(C(=O)CO)C[C@@H]3O[C@H]1C[C@H](N)[C@H](O)[C@H](C)O1 [ADM, adriamycin]
alterations of rat electrocardiogram (ADM group (FIG. 2) compared with normal conditions): absent P-wave, flattened T-wave, obviously reduced ST-T segment, and decreased QRS waves
myocardial MDA (nmol/mg prot) [1]: 8.99 ± 1.17^a nmol/mg prot
myocardial SOD (U/mg prot) [1]: 330.02 ± 15.39^a U/mg prot
Pathological classification of myocardial injury: number of rats in grade II [2]: 3
Pathological classification of myocardial injury: number of rats in grade III [2]: 5
myocardial tissue slice (stained with HE) (rats received intraperitoneal injection of ADM): seriously injured
